# Data published in patent US10258583B2, “Extended release liquid compositions of guanfacine” (SUN PHARMACEUTICAL INDUSTRIES LIMITED, priority 2014, dated 2019).
# Assays:
# [1] = cited from earlier work
# [2] = Osmolality measurements (Osmomat 030-D); format: physicochemical; conditions: samples of composition prepared as per Example 13
# Source text: The term “osmolality,” as used herein, means the number of moles of any water-soluble compound per kg of the carrier. In the present invention, the osmolality may be measured according to known methods, such as using a Vapor pressure Osmometer, a Colloid Osmometer, or a Freezing Point Depression Osmometer such as Osmomat® 030-D or Osmomat® 3000, in particular by a Freezing Point Depression Osmometer. In the present invention, pharmaceutically acceptable carrier has an osmolality of about 1 osmol/kg or more than about 1 osmol/kg of the pharmaceutically acceptable carrier.
# The term “osmolality ratio,” as used herein, means the ratio of osmolality of the external phase to the osmolality of the internal phase. […]
# Xylitol, microcrystalline cellulose-sodium carboxymethyl cellulose, xanthan gum, strawberry flavor, sucralose, citric acid, methyl paraben, propyl paraben and colloidal silicon dioxide, purified water were mixed as per Example 13. This suspension was then filtered and diluted with purified water, and the osmolality of the external phase was measured using Osmomat 030-D.
# Various solutions having various concentrations of sodium chloride were prepared as per Examples (A)-(D). The osmolalities of these solutions were measured using Osmomat 030-D.
# Sodium chloride was dissolved in purified water as per Examples A-D. The osmolality of these solutions were measured using Osmomat 030-D.
# [3] = pH dependent degradation profile - solution state stability; format: physicochemical
# Source text: Guanfacine, particularly guanfacine hydrochloride, is found to degrade at high pH values. […] One of the major impurity of guanfacine is 2,6-dichlorophenyl acetic acid. [table]
structure (smiles),measurement,setting,value
"Cl.N=C(N)NC(=O)Cc1c(Cl)cccc1Cl [Guanfacine hydrochloride, N-amidino-2-(2,6-dichlorophenyl)-acetamide monohydrochloride]",solubility in acetone,[1]; acetone,slightly soluble
same,solubility in alcohol,[1]; alcohol,sparingly soluble
same,solubility in water,[1]; water,approximately 1 mg/mL
same,Osmolality,[2],0.006 OSMOL/Kg
same,% Assay,"[3]; pH 1.2, 0 hours",101.2%
same,% Assay,"[3]; pH 1.2, 1 hour",101.2%
same,% Assay,"[3]; pH 1.2, 4 hours",101.2%
same,% Assay,"[3]; pH 1.2, 8 hours",101.1%
same,% Assay,"[3]; pH 1.2, 16 hours",101.6%
same,% Assay,"[3]; pH 1.2, 24 hours",101.4%
same,% Assay,"[3]; pH 2.2, 0 hours",100.3%
same,% Assay,"[3]; pH 2.2, 1 hour",100.5%
same,% Assay,"[3]; pH 2.2, 4 hours",100.4%
same,% Assay,"[3]; pH 2.2, 8 hours",100.4%
same,% Assay,"[3]; pH 2.2, 16 hours",100.3%
same,% Assay,"[3]; pH 2.2, 24 hours",100.2%
same,% Assay,"[3]; pH 4.5, 0 hours",99.4%
same,% Assay,"[3]; pH 4.5, 1 hour",99.0%
same,% Assay,"[3]; pH 4.5, 4 hours",98.7%
same,% Assay,"[3]; pH 4.5, 8 hours",98.9%
same,% Assay,"[3]; pH 4.5, 16 hours",98.7%
same,% Assay,"[3]; pH 4.5, 24 hours",98.5%
same,% Assay,"[3]; pH 6.8, 0 hours",99.5%
same,% Assay,"[3]; pH 6.8, 1 hour",99.0%
same,% Assay,"[3]; pH 6.8, 4 hours",97.2%
same,% Assay,"[3]; pH 6.8, 8 hours",93.7%
same,% Assay,"[3]; pH 6.8, 16 hours",86.3%
same,% Assay,"[3]; pH 6.8, 24 hours",79.9%
same,% Assay,"[3]; pH 7.5, 0 hours",100.9%
same,% Assay,"[3]; pH 7.5, 1 hour",99.9%
same,% Assay,"[3]; pH 7.5, 4 hours",97.1%
same,% Assay,"[3]; pH 7.5, 8 hours",92.2%
same,% Assay,"[3]; pH 7.5, 16 hours, listed as guanfacine, monohydrochloride",84%
same,% Assay,"[3]; pH 7.5, 16 hours, monohydrochloride",84.0%
same,% Assay,"[3]; pH 7.5, 24 hours",77.5%
